The record followed here is patent US12528767B2, “HDAC6 inhibitors and uses thereof” (Eikonizo Therapeutics, Inc., priority 2019, dated 2026).

One assay has as its target T1, Full length Human HDAC8 (Homo sapiens, UniProt Q9BY41).
T1 sequence (Q9BY41 1-377): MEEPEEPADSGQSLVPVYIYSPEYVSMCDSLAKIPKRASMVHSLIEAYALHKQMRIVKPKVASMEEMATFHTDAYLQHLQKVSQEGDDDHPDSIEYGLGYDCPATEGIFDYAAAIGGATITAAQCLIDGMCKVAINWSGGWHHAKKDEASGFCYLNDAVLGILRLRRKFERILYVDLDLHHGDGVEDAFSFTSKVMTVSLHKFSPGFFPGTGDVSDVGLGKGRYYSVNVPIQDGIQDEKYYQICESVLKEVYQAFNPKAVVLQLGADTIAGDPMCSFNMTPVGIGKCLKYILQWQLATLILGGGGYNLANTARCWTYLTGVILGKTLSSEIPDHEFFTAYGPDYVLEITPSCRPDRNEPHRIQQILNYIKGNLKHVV

A further assay has as its target T2, Full length Human HDAC6 (Homo sapiens, UniProt Q9UBN7).
T2 sequence (Q9UBN7 1-1215): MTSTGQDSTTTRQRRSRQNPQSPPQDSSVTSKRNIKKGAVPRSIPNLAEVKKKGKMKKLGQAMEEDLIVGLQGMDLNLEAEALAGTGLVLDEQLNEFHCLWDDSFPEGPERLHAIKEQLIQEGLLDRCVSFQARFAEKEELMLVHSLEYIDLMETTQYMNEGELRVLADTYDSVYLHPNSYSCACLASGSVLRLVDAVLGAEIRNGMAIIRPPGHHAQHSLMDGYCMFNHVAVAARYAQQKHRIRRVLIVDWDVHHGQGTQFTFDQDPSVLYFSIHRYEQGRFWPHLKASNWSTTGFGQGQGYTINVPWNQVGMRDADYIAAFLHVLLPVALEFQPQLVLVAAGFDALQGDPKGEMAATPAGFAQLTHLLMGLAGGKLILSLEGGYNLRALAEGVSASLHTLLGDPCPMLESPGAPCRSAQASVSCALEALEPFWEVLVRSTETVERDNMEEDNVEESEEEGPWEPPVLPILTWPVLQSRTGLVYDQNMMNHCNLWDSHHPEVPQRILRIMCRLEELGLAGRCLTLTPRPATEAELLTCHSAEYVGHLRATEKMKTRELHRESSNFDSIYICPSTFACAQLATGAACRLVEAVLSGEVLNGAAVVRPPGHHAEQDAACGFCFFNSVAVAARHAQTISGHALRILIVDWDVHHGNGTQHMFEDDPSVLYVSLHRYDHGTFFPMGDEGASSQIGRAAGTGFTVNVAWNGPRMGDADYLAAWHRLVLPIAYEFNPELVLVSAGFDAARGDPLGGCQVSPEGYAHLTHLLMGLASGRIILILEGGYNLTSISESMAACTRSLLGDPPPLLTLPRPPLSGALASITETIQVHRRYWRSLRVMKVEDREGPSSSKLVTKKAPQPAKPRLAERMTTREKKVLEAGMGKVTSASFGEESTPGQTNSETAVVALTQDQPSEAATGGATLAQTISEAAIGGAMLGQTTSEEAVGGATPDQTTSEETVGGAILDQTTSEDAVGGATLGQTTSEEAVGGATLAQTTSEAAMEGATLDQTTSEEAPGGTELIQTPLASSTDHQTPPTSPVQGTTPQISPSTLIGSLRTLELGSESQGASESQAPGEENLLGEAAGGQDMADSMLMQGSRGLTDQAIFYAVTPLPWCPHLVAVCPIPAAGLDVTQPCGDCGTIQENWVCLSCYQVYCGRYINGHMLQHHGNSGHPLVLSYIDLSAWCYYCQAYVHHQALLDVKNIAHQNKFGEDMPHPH
The note with it: for Selectivity (6 v 8) (fold): ratio of HDAC8 IC50/HDAC6 IC50.

Like-named read-outs stand apart in the source and are kept apart here.

Regarding `O=C(NO)c1cc(F)c2c(c1)CCN([C@@H]1CCC13CCCCC3)C2` (single isomer, unassigned) [compound 8], the IC50 against Full length Human HDAC8 is 10000 to 100000 nM; against Full length Human HDAC6 it was 100 to 1000 nM. Further, the “Selectivity (6 v 8) (fold)” value on Full length Human HDAC6 (Table 1, number) is 198.5 fold; on Full length Human HDAC6 (Table 1, range class), “IV (IV: >100-1000)”.
As for `O=C(NO)c1cc(F)c2c(c1)CCN([C@H]1CCC13CCCCC3)C2` (single isomer, unassigned) [compound 9], the IC50 fell in the range of 10000 to 100000 nM against Full length Human HDAC8 and 1 to 100 nM against Full length Human HDAC6. The “Selectivity (6 v 8) (fold)” value on Full length Human HDAC6 (Table 1, number) is given as 207.1 fold; on Full length Human HDAC6 (Table 1, range class) it was “IV (IV: >100-1000)”.
Take `CC1(C)C[C@H]2Cc3cc(C(=O)NO)cc(F)c3CN2C1` (single isomer, unassigned) [compound 125]: the values for the IC50 against Full length Human HDAC8 and against Full length Human HDAC6 were 1000 to 10000 nM and 1 to 100 nM, respectively. Moreover, the “Selectivity (6 v 8) (fold)” value at Full length Human HDAC6 (Table 1, number) is 82 fold; at Full length Human HDAC6 (Table 1, range class), “III (III: >10-100)”.
For `O=C(NO)c1ccc2c(c1)C[C@@H]1COCC(=O)N1C2` (single isomer, unassigned) [compound 133], the figures for the IC50 against Full length Human HDAC8 and on Full length Human HDAC6 were 1000 to 10000 nM and 100 to 1000 nM, respectively.
Turning to `O=C(NO)c1cc(F)c2c(c1)C[C@H]1CCC3(CCCCC3)CN1C2` (single isomer, unassigned) [compound 138], the IC50 lay within 10000 to 100000 nM against Full length Human HDAC8 and 100 to 1000 nM against Full length Human HDAC6. The “Selectivity (6 v 8) (fold)” value is given as 45 fold at Full length Human HDAC6 (Table 1, number) and “III (III: >10-100)” on Full length Human HDAC6 (Table 1, range class).
Regarding `O=C(NO)c1ccc2c(c1)CN1CCC[C@H]21` (single isomer, unassigned) [compound 164], the “Selectivity (6 v 8) (fold)” value is listed as 2.3 fold at Full length Human HDAC6 (Table 1, number) and “II (II: >1-10)” at Full length Human HDAC6 (Table 1, range class).
For `O=C(NO)c1ccc2c(c1)CN1CCC[C@@H]21` (single isomer, unassigned) [compound 165], the IC50 lay within 1000 to 10000 nM against Full length Human HDAC8 and 100 to 1000 nM against Full length Human HDAC6. Besides, the “Selectivity (6 v 8) (fold)” value at Full length Human HDAC6 (Table 1, number) is recorded as 15 fold; at Full length Human HDAC6 (Table 1, range class) it was “III (III: >10-100)”.
The like results for `CN1CC2(CCCCC2)CC[C@H]1Cc1cc(F)cc(C(=O)NO)c1` (single isomer, unassigned) [compound 171] were, in that order, 1000 to 10000 nM, 1 to 100 nM, 30.2 fold and “III (III: >10-100)”.
Regarding `CC1(CN2CCc3cc(C(=O)NO)cc(F)c3C2)CC1` [compound 1, 8-fluoro-N-hydroxy-2-((1-methylcyclopropyl)methyl)-1,2,3,4-tetrahydroisoquinoline-6-carboxamide], the IC50 against Full length Human HDAC8 was 10000 to 100000 nM; against Full length Human HDAC6, 1 to 100 nM. In addition, the “Selectivity (6 v 8) (fold)” value at Full length Human HDAC6 (Table 1, number) is 145.7 fold; on Full length Human HDAC6 (Table 1, range class) it was “IV (IV: >100-1000)”.
As to `O=C(NO)c1cc(F)c2c(c1)CCN(CC1CC1)C2` [compound 2], the IC50 fell in the range of 1000 to 10000 nM on Full length Human HDAC8 and 1 to 100 nM against Full length Human HDAC6.
Taken in the same sequence, the figures for `O=C(NO)c1cc(F)c2c(c1)CCN(CC1CCC1)C2` [compound 3] were 1000 to 10000 nM and 1 to 100 nM.
On to `O=C(NO)c1cc(F)c2c(c1)CCN(C1CCC1)C2` [compound 4], for which the IC50 is 10000 to 100000 nM against Full length Human HDAC8 and 1 to 100 nM against Full length Human HDAC6.
Taken in the same sequence, the figures for `O=C(NO)c1cc(F)c2c(c1)CCN(CC(F)(F)F)C2` [compound 7] were 1000 to 10000 nM and 1 to 100 nM.
Turning to `O=C(NO)c1cc(F)c2c(c1)CN(CC13CC4CC(CC(C4)O1)C3)C2` [compound 13], the IC50 fell in the range of 10000 to 100000 nM against Full length Human HDAC8 and 100 to 1000 nM against Full length Human HDAC6. Also, the “Selectivity (6 v 8) (fold)” value on Full length Human HDAC6 (Table 1, number) was 168.4 fold; on Full length Human HDAC6 (Table 1, range class) it was “IV (IV: >100-1000)”.
In the case of `O=C(NO)c1cc(F)c2c(c1)CCN(CC13CC4CC(CC(C4)O1)C3)C2` [compound 14], the IC50 against Full length Human HDAC8 was 10000 to 100000 nM; at Full length Human HDAC6, 1 to 100 nM.
`O=C(NO)c1cc(F)c2c(c1)CCN(C1CCC13CCCCC3)C2` (stereo not shown) [compound 15]: the IC50 at Full length Human HDAC8 lay within 10000 to 100000 nM; at Full length Human HDAC6, 1 to 100 nM. In addition, the “Selectivity (6 v 8) (fold)” value is recorded as 209.2 fold at Full length Human HDAC6 (Table 1, number) and “IV (IV: >100-1000)” on Full length Human HDAC6 (Table 1, range class).
Taken in the same sequence, the figures for `O=C(NO)c1ccc2c(c1F)CCN(CC13CC4CC(CC(C4)C1)C3)C2` [compound 21] were 1000 to 10000 nM, 100 to 1000 nM, 50.2 fold and “III (III: >10-100)”.
Turning to `O=C(NO)c1cc(F)c2c(c1)CCN(CC13C4C5C6C4C1C6C53)C2` (stereo not shown) [compound 25], the IC50 was in the range of 10000 to 100000 nM on Full length Human HDAC8 and 1 to 100 nM on Full length Human HDAC6.
For the compound `O=C(NO)c1ccc2c(c1)CCN(CC13CC4CC(CC(C4)C1)C3)C2` [compound 26], the IC50 at Full length Human HDAC8 lay in the range of 1000 to 10000 nM; at Full length Human HDAC6, 1 to 100 nM. Moreover, the “Selectivity (6 v 8) (fold)” value at Full length Human HDAC6 (Table 1, number) is reported as 69.7 fold; on Full length Human HDAC6 (Table 1, range class) it was “III (III: >10-100)”.
For the compound `Cc1cccc(C)c1CN1CCc2cc(C(=O)NO)cc(F)c2C1` [compound 28], the figures for the IC50 at Full length Human HDAC8 and on Full length Human HDAC6 were 1000 to 10000 nM and 1 to 100 nM, respectively.
Take `O=C(NO)c1ccc(CN2CCCOCC2)c(F)c1` [compound 47]: the IC50 on Full length Human HDAC8 was 100 to 1000 nM; against Full length Human HDAC6, 1 to 100 nM. The “Selectivity (6 v 8) (fold)” value at Full length Human HDAC6 (Table 1, number) is listed as 22.3 fold; at Full length Human HDAC6 (Table 1, range class), “III (III: >10-100)”.
Taken in the same sequence, the figures for `O=C(NO)c1cc(F)c(CN2C3CCC2COC3)cc1F` [compound 50] were 1000 to 10000 nM, 1 to 100 nM, 45.5 fold and “III (III: >10-100)”.
The like results for `O=C(NO)c1ccc(CN2CCOCC2)c(F)c1` [compound 51] were, in that order, 100 to 1000 nM, 1 to 100 nM, 27.6 fold and “III (III: >10-100)”.
Take `CN1CC2CCC(C1)N2Cc1ccc(C(=O)NO)cc1F` [compound 56]: the IC50 on Full length Human HDAC8 was 100 to 1000 nM; against Full length Human HDAC6, 1 to 100 nM. Further, the “Selectivity (6 v 8) (fold)” value at Full length Human HDAC6 (Table 1, number) was 19 fold; at Full length Human HDAC6 (Table 1, range class), “III (III: >10-100)”.
Taken in the same sequence, the figures for `CN1CC2CCC1CN2Cc1ccc(C(=O)NO)cc1F` (stereo not shown) [compound 57] were 100 to 1000 nM, 1 to 100 nM, 10.7 fold and “III (III: >10-100)”.
For the compound `O=C1CC2CCCC(C1)N2Cc1ccc(C(=O)NO)cc1F` [compound 62], the IC50 was in the range of 100 to 1000 nM against Full length Human HDAC8 and 1 to 100 nM at Full length Human HDAC6. For the same compound, the “Selectivity (6 v 8) (fold)” value on Full length Human HDAC6 (Table 1, number) was 30.6 fold; at Full length Human HDAC6 (Table 1, range class), “III (III: >10-100)”.
For the compound `O=C1CC2CCC(C1)N2Cc1ccc(C(=O)NO)cc1F` [compound 63], the IC50 on Full length Human HDAC8 was 100 to 1000 nM; against Full length Human HDAC6, 1 to 100 nM. Moreover, the “Selectivity (6 v 8) (fold)” value at Full length Human HDAC6 (Table 1, number) is 42.1 fold; at Full length Human HDAC6 (Table 1, range class), “III (III: >10-100)”.
Turning to `O=C(NO)c1ccc(CN2CCCC3(CCCCC3)C2)c(F)c1` [compound 64], the IC50 at Full length Human HDAC8 is 1000 to 10000 nM; on Full length Human HDAC6, 1 to 100 nM.
As for `O=C(NO)c1ccc(CN2CC3(CCOC3)C2)c(F)c1` [compound 68], the IC50 against Full length Human HDAC8 fell in the range of 1000 to 10000 nM; at Full length Human HDAC6 it was 1 to 100 nM. Further, the “Selectivity (6 v 8) (fold)” value is listed as 27.9 fold on Full length Human HDAC6 (Table 1, number) and “III (III: >10-100)” on Full length Human HDAC6 (Table 1, range class).
The like results for `O=C(NO)c1ccc(CN2CC3(CCCC3)C2)c(F)c1` [compound 69] were, in that order, 1000 to 10000 nM, 1 to 100 nM, 20.6 fold and “III (III: >10-100)”.
